Drawing on PubChem BioAssay (NCI), this text covers GI50 and TGI for 21 molecules.

Several values for one entry are separate records, joined by “and”; a condition that tells them apart may be missing. Equal values may be shown once.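 Each compound was tested at five concentrations against cells in 96-well plates for 48 hours. The concentration for 50% growth inhibition is given as GI50. TGI denotes the concentration required for complete inhibition of growth.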

Test systems include PC-3 prostate; T-47D breast; DU-145 prostate; DLD-1 colon; KM20L2 colon; LXFL 529 NSCLC.
Holding throughout (assay): NCI-60 cell line screen, 48 h

`CCN(CC)CCNc1ccc([N+](=O)[O-])c2sc3ccccc3c(=O)c12`: the results for the GI50 in the assay on PC-3 prostate, with T-47D breast and in the assay with DU-145 prostate were 1.05 µM, 4.4 µM and 0.766 µM, respectively. In addition, the results for the TGI with PC-3 prostate, in the assay on T-47D breast and in the assay on DU-145 prostate were 2.47 µM, 18.9 µM and 2.05 µM, respectively.

For the molecule `COc1ccccc1/C=C/[N+](=O)[O-]`, the figures for the GI50 in the assay on PC-3 prostate, with T-47D breast and in the assay with DU-145 prostate were 2.41 µM, 3.17 µM and 1.95 µM, respectively. The TGI in the assay with PC-3 prostate was determined as 6.93 µM; in the assay with T-47D breast it was 16.9 µM; in the assay with DU-145 prostate it was 3.63 µM.

As to `O=C(/C=C/C12c3ccccc3C(c3ccccc31)C1C(=O)N(c3ccccc3)C(=O)C12)c1ccccc1` (configuration not stated), in the assay on PC-3 prostate, the GI50 is 2.07 µM and the TGI is above 100 µM. Also, in the assay with DU-145 prostate, the GI50 is 2.14 µM and the TGI came out at 6.03 µM.

With `CCCCS(=O)CCC(N)C(=O)O` (configuration not stated), the TGI in the assay with PC-3 prostate, with T-47D breast and with DU-145 prostate was above 100 µM each time.

As for `COc1ccc2c(c1)/C(=C\c1cccnc1)C(=O)N2`, the GI50 in the assay with PC-3 prostate was 33.1 µM; in the assay on T-47D breast it was 13 µM; with DU-145 prostate, 2.52 µM. For the same molecule, the TGI was above 100 µM in the assay on PC-3 prostate, 37.9 µM in the assay on T-47D breast and 21.3 µM in the assay on DU-145 prostate.

Take `COc1ccc2c(c1)C(=O)c1c-2n(CCCN=[N+]=[N-])c(=O)c2cc(N(C)C)ccc12`: the results for the GI50 in the assay on PC-3 prostate, in the assay on T-47D breast and in the assay with DU-145 prostate were above 100 µM, 61.3 µM and above 100 µM, respectively. In addition, the TGI in the assay on PC-3 prostate, with T-47D breast and with DU-145 prostate was above 100 µM each time.

On to `O=C1C=C(NCCNC(=S)Nc2ccccc2)c2nccc3c2c1nc1ccccc13`, for which the values for the GI50 with PC-3 prostate, in the assay on T-47D breast and in the assay on DU-145 prostate were above 100 µM, above 100 µM and 39.8 µM, respectively. The TGI with PC-3 prostate, with T-47D breast and in the assay with DU-145 prostate was above 100 µM in each case.

In the case of `CCCCCCCNc1nc(C(=O)OCC)ncc1-c1ccc(C(F)(F)F)cc1`, the GI50 in the assay with PC-3 prostate was 26.6 µM; with T-47D breast it was 28.1 µM; in the assay on DU-145 prostate it was 46.1 µM. Further, the TGI in the assay with PC-3 prostate, in the assay on T-47D breast and in the assay on DU-145 prostate was above 100 µM each time.

On to `O=C(c1ccc2ccccc2c1)c1c(C(F)(F)F)n([O-])c2cc(F)c(F)cc2[n+]1=O`, for which the GI50 in the assay on PC-3 prostate was 1.48 µM; with T-47D breast, 2.67 µM; in the assay with DU-145 prostate, 1.46 µM. The TGI amounted to 2.9 µM with PC-3 prostate, 6.14 µM with T-47D breast and 4.33 µM in the assay with DU-145 prostate.

`COc1ccc(N2Cc3cnc(Nc4ccccc4)nc3N([C@@H]3CC[C@@H](O)C3)C2=O)cc1`: the results for the GI50 with PC-3 prostate, in the assay with T-47D breast and with DU-145 prostate were 6.93 µM, 11.9 µM and 5.59 µM, respectively. The TGI in the assay on PC-3 prostate, with T-47D breast and with DU-145 prostate was above 25 µM each time.

As for `Nc1ncnc2c1ncn2C1CCC(COS(N)(=O)=O)C1` (configuration not stated), the TGI in the assay on PC-3 prostate, in the assay with T-47D breast and in the assay on DU-145 prostate was above 100 µM in each case.

Turning to `Oc1ccc(C(c2ccc(O)cc2)c2ccc(Cl)cn2)cc1`, the GI50 with PC-3 prostate was 0.194 µM; in the assay with T-47D breast, 0.0243 µM; in the assay with DU-145 prostate, 1.06 µM. For the same molecule, the figures for the TGI in the assay on PC-3 prostate, in the assay with T-47D breast and with DU-145 prostate were 0.708 µM, 0.0762 µM and above 100 µM, respectively.

Take `C1C[OH+]CC[OH+]CCNCC[OH+]CC[OH+]CCN1.[Cl-].[Pt+4]`: the results for the GI50 in the assay on DLD-1 colon, in the assay on KM20L2 colon and in the assay on LXFL 529 NSCLC were above 100 µM, above 100 µM and 63.7 µM, respectively. Further, the TGI with DLD-1 colon, in the assay with KM20L2 colon and in the assay with LXFL 529 NSCLC was above 100 µM each time.

For the molecule `CCCC(=O)Nc1cc(C(=O)N2C[C@@H]3C[C@]34C2=CC(=O)c2[nH]cc(C)c24)n(COC)c1`, the figures for the GI50 with PC-3 prostate, with T-47D breast and in the assay on DU-145 prostate were 2.86 µM, 2.38 µM and 3.18 µM, respectively. Also, the TGI in the assay on PC-3 prostate was 37.5 µM and 13.2 µM; in the assay with T-47D breast, 30.2 µM and 10.6 µM; in the assay with DU-145 prostate it was 27.3 µM and 20.9 µM.

As for `CCCCCCCCCCCCCCN`, the TGI in the assay on PC-3 prostate, with T-47D breast and with DU-145 prostate was above 100 µM in each case.

In the case of `COc1ccc(-c2nc3sc(-c4ccc(Cl)cc4)cn3n2)cc1`, the GI50 in the assay on PC-3 prostate was above 50 µM; in the assay with T-47D breast, 3.54 µM; in the assay with DU-145 prostate, above 50 µM. For the same molecule, the TGI in the assay with PC-3 prostate, with T-47D breast and with DU-145 prostate was above 50 µM throughout.

In the case of `COc1cc(/C=C2\CCC/C(=C\c3cc(OC)c(O)c(OC)c3)C2=O)cc(OC)c1O`, in the assay on PC-3 prostate, the GI50 is 1.24 µM. Besides, the TGI with T-47D breast is 75 µM; with DU-145 prostate, 6.01 µM.

On to `COc1ccc(C2SCC(=O)N2NC(=O)C(O)c2ccccc2)cc1OC` (configuration not stated), for which the GI50 in the assay on PC-3 prostate, in the assay with T-47D breast and in the assay with DU-145 prostate was above 100 µM in each case. Besides, the TGI with PC-3 prostate, in the assay with T-47D breast and with DU-145 prostate was above 100 µM in each case.

Consider `Cc1ccc(S(=O)(=O)NCCNC2=CC(=O)c3nc4ccccc4c4ccnc2c34)cc1`, for which the values for the GI50 in the assay on PC-3 prostate, in the assay with T-47D breast and in the assay on DU-145 prostate were 16 µM, 25.6 µM and 19.1 µM, respectively. For the same molecule, the TGI turned out to be 49.8 µM with PC-3 prostate, 95.9 µM in the assay with T-47D breast and 51.5 µM in the assay with DU-145 prostate.

Regarding `C/C(=N\O)c1cccc(Nc2cc(-n3ccnn3)c3ccccc3n2)c1`, the GI50 is 15.6 µM in the assay with PC-3 prostate, 14.9 µM in the assay on T-47D breast and 17.5 µM in the assay with DU-145 prostate. Also, the TGI in the assay on PC-3 prostate is 38 µM; with T-47D breast, 64.9 µM; in the assay on DU-145 prostate, 37.2 µM.

`O=C(Nc1ccc(F)cc1)c1ccc(NC2=C(Cl)C(=O)N(Cc3ccccc3)C2=O)cc1`: the GI50 with PC-3 prostate is 7.42 µM; with T-47D breast, 5.69 µM; with DU-145 prostate, 6.48 µM. For the same molecule, the TGI in the assay on PC-3 prostate was 22.3 µM; with T-47D breast, above 100 µM; in the assay on DU-145 prostate, 29.8 µM.
